The values that follow come from patent US6699834B1, “Method for treating cancer” (University of Maryland Biotechnology Institute, priority 1997, dated 2004).

For one assay, the system named is HIV-1. Conditions: for HIV in vitro Inhibition: inhibition of HIV-1 replication in vitro (HIV-1 strains and HIV-1 primary isolates). The text has this:
To prepare HIV infected cells for the in vitro assay of hCG preparations and β-hCG peptides and derivatives, primary PBMCs, macrophages, and CD4^+ T cells isolated from peripheral blood and the H9 human T cell line, were acutely or chronically infected with 8 different HIV-1 strains: 4 cell line adapted viruses, namely the macrophage tropic Ba-L strain (Gartner et al., 1986, Science 233:215-219) and the CD4^+ T cell tropic MN, RF, and IIIB strains (10^5 TCID50/ml) (Popovic et al., 1984, Science […]; Gallo et al.; 1984, Science 224:500-503); 2 isolates, Ju1083 and G3, from Nigerian AIDS patients passed once in a CD4^+ T cell line (Sub-T1); and 2 primary (“clinical”) isolates from AIDS patients from Trinidad which were never passed in any cell line and were used at a titer of 7.5×10^4TCID50/ml. In all experiments; HIV1 (10^5 TCID50/ml) was added to the cells(10^6 cells/ml) for a 2 hour incubation after which the virus infected cells were washed with 10 ml phosphate buffered saline (PBS) three times to eliminate extra cellular virus. The test inhibitor, i.e. the hCG or β-hCG peptide preparation was then added and the cells were incubated with the test inhibiter for 9 to 10 days with serial sampling. Cultures were assayed for p24 antigen on days 3 to 10.
Peptides of the α- and β-subunits (0.05 to 50 nmoles/ml), native α chain preparation, and various crude preparations of the native hCG heterodimer (0.01 to 1,000 IU) and the native β-hCG subunit (100 to 1,000 μg) were tested for effects on HIV-1 replication in acutely infected cells-by measuring change in viral antigen levels in response to the above noted preparations (FIGS. 4A-D and Table 3).
The fractions were then tested for anti-HIV, anti-KS and pro-hematopoietic activities in vitro. To assay for inhibition of HIV-1 replication in vitro, the HIV-1 […] viral strain was used to infect PBMCs and PM-1 cells (derived from the HUT-78 T-cell lymphoma cell line) at 10^3 TCID50/ml as described in detail herein.

The test system of the next assay is KS Y-1 and KS-SLK cells. The assay is described as follows: Kaposi's Sarcoma clonogenic assay in cultured cells. Type of assay: cell-based, human. Conditions: for inhibition of KS cell growth in clonogenic assays (in words): KS Y-1 and KS SLK; for KS in vitro: inhibition of Kaposi's Sarcoma cell growth in vitro in cultured cells. The method, then: Briefly, the KS Y-1 cells were obtained from mononuclear cells isolated from pleural effusion of an AIDS patient with KS in the lungs. After the depletion of T lymphocytes, monocytes/macrophages and fibroblasts using monoclonal antibodies against CD2, CD3, CD4, CD8, CD10 and CD14 membrane antigens and baby rabbit complement, the cells were cultured in the absence of exogenous growth factors to select for transformed cells. […] Clonogenic assays were performed by seeding the KS Y-1 or KS-SLK cells in methylcellulose (0.8%, v/v), incubating the cells for 10 days in the presence or absence of the hCC, β-hCG or β-hCG peptide preparations and then counting the number of well-formed colonies of triplicate wells formed after seeding with 5×10^4 cells.
To assay for activity against Kaposi's sarcoma cell growth in vitro, the clonogenic assay described herein was used with the KS Y-1 and KS-SLK cultured Kaposi's Sarcoma cell lines,.

Assay [1] concerns Kaposi's Sarcoma induced in mice. The experiment in a line: Kaposi's Sarcoma tumors induced in mice by KS Y-1 cells. Type of assay: in vivo. Conditions: for KS in vivo: inhibition of Kaposi's Sarcoma induced in mice; for effect on KS tumors in mice (in words): mouse, in vivo. Here is the method: The effects of the peptides on KS tumor cells were also evaluated in vivo in the KS mouse model. To induce KS tumors in the mice, 1×10^6/ml KS Y-1 cells in 50 μl PBS or saline were injected subcutaneously into immunodeficient mice (beige-XID-BNX mice). […] Methods for detection of apoptosis (from tissue biopsies) were used, as described in Lunardi-Iskandar et al.(1995, Nature 375:64-68). Briefly, the samples were stained in situ for the presence of cells with DNA fragmentation. Tissue slides from formalin-fixed tumors were treated with terminal deoxynucleotide transferase for extension of DNA ends (hydroxyl 3′) and incorporation of digoxigenin-11-dUTP according to the manufacturer's instructions (Oncor, Gaithersburg, Md.). Anti-digoxigenin antibody conjugated with the enzyme peroxidase allowed detection of apoptotic cells, which stain brown, whereas viable cells stain blue.
Certain fractions were tested for activity in reducing Kaposi's Sarcoma lesions in the Kaposi's Sarcoma mouse model as described herein. In this assay, starting one week after injection of the KS Y-1 cells to induce Kaposi's sarcoma formation, the mice were injected subcutaneously with 100 IU hCG. […] After one week of the week of treatment with the hCG fractions, the KS lesions were examined for cell apoptosis and regression as described herein.
Certain fractions of the APL™ hCG and early pregnancy urine were assayed for their ability to elicit apoptosis in Kaposi's Sarcoma lesions induced by injection of KS Y-1 cells in mice (n=3 mice for each treatment). The mice were administered 100 μl subcutaneously of the particular fraction each day for one week.

Assay [2] deals with hematopoietic progenitor cells. The assay is described as follows: Hematopoietic progenitor clonogenic assays (CFU-GEMM, BFU-e, CFU-GM). Type of assay: cell-based, human. Conditions: for Pro-hematopoiesis in vitro Enhancement: relative increase of hematopoietic colony cell number, hCG preparations 200 IU/ml, subunits and peptides 100 μg/ml. The method, then: The effect of hCG preparations and peptides was assayed on hematopoietic progenitor cells in vitro: Hematopoietic progenitor cells (2×10^5 cell/ml) were isolated from normal bone marrow and cord blood and seeded in methylcellulose. […] The hCG preparations were administered at 200 IU/ml and the β- and α-subunits and peptides were administered at 100 μg/ml. The native commercial preparation of hCG (APL™, Wyeth Ayerst) was pre-tested for anti-HIV and anti-KS activities. Aggregates containing more than 50 cells after 10 days of culture were counted as colonies.

For the substance “1. 109-119: β-hCG amino acids 109-119 (SEQ ID NO:7) (TCDDPRFQDSS)”, in the assay with HIV-1, the “inhibition of HIV-1 infection/replication in vitro (in words)” value was “inhibit HIV-1 replication in vitro” and the “HIV in vitro Inhibition” value is “+ (“+” represents greater than 15% effect)”. For the same substance, in the assay on KS Y-1 and KS-SLK cells, the “inhibition of KS cell growth in clonogenic assays (in words)” value was “strongest anti-tumor effects” and the KS in vitro result is “+ (“+” represents greater than 15% effect)”. In assay [1], the KS in vivo result was “+ (“+” represents greater than 15% effect)” and the “effect on KS tumors in mice (in words)” value is “some anti-KS activity”. In assay [2], the “promotion of hematopoiesis (in words)” value is listed as “directly promoted” and the “Pro-hematopoiesis in vitro Enhancement” value is recorded as “+ (“+” represents greater than 15% effect)”.
Consider “2. 109-145: β-hCG amino acids 109-145 (SEQ ID NO:25) (TCDDPRFQDSSSSKAPPPSLPSPSRLPGPSDTPILPQ)”, for which, in the assay with HIV-1, the “inhibition of HIV-1 infection/replication in vitro (in words)” value was “inhibited HIV-1 replication” and the “HIV in vitro Inhibition” value was “+ (“+” represents greater than 15% effect)”. In the assay with KS Y-1 and KS-SLK cells, the “inhibition of KS cell growth in clonogenic assays (in words)” value was “strongest anti-tumor effects” and the KS in vitro entry was “+ (“+” represents greater than 15% effect)”. Further, in assay [1], the KS in vivo entry is “+ (“+” represents greater than 15% effect)” and the “effect on KS tumors in mice (in words)” value is reported as “some anti-KS activity”. In addition, in assay [2], the “Pro-hematopoiesis in vitro Enhancement” value is recorded as “+ (“+” represents greater than 15% effect)”.
In the case of “9. 38-57: β-hCG amino acids 38-57 (CPTMTRVLQGVLPALPQVVC; UniProt P0DN86 58-77, looked up, fragment)”, the “HIV in vitro Inhibition” value in the assay on HIV-1 is “− (“−” represents less than 10% effect)”. In the assay on KS Y-1 and KS-SLK cells, the KS in vitro entry is reported as “− (“−” represents less than 10% effect)”. Besides, the KS in vivo entry in assay [1] is “− (“−” represents less than 10% effect)”. Also, the “Pro-hematopoiesis in vitro Enhancement” value in assay [2] is reported as “− (“−” represents less than 10% effect)”.
For “16. 31-50: β-hCG amino acids 31-50 (TTICAGYCPTMTRVLQGVLP; UniProt P0DN86 51-70, looked up, fragment)”, in the assay with HIV-1, the “HIV in vitro Inhibition” value was “− (“−” represents less than 10% effect)”. Further, in the assay on KS Y-1 and KS-SLK cells, the KS in vitro result is listed as “− (“−” represents less than 10% effect)”. Further, the “Pro-hematopoiesis in vitro Enhancement” value in assay [2] is “− (“−” represents less than 10% effect)”.
Turning to “21. 74-95: β-hCG amino acids 74-95 (RGVNPVVSYAVALSCQCALCRR; UniProt P0DN86 94-115, looked up, fragment)”, the “HIV in vitro Inhibition” value in the assay with HIV-1 was “− (“−” represents less than 10% effect)”. Besides, the KS in vitro entry in the assay with KS Y-1 and KS-SLK cells is given as “− (“−” represents less than 10% effect)”. In addition, the “Pro-hematopoiesis in vitro Enhancement” value in assay [2] was “− (“−” represents less than 10% effect)”.
Consider “22. 7-40: β-hCG amino acids 7-40 (SEQ ID NO:33) (PRCRPINATLAVEKEGCPVCITVNTTICAGYCPT)”, for which, in the assay on HIV-1, the “inhibition of HIV-1 infection/replication in vitro (in words)” value is on record as “inhibited HIV-1 replication” and the “HIV in vitro Inhibition” value is recorded as “+ (“+” represents greater than 15% effect)”. Also, the KS in vitro result in the assay on KS Y-1 and KS-SLK cells is reported as “+ (“+” represents greater than 15% effect)”. The “Pro-hematopoiesis in vitro Enhancement” value in assay [2] is on record as “− (“−” represents less than 10% effect)”.
On to “23. 57-93: β-hCG amino acids 57-93 (CNYRDVRFESIRLPGCPRGVNPVVSYAVALSCQCALC; UniProt P0DN86 77-113, looked up, fragment)”, for which the “HIV in vitro Inhibition” value with HIV-1 is recorded as “− (“−” represents less than 10% effect)”. Moreover, the KS in vitro result with KS Y-1 and KS-SLK cells is “− (“−” represents less than 10% effect)”. The “Pro-hematopoiesis in vitro Enhancement” value in assay [2] is listed as “− (“−” represents less than 10% effect)”.
Take 26. 134-144: β-hCG amino acids 134-144: the “HIV in vitro Inhibition” value with HIV-1 was “− (“−” represents less than 10% effect)”. In the assay on KS Y-1 and KS-SLK cells, the KS in vitro entry was “− (“−” represents less than 10% effect)”. For the same substance, in assay [2], the “Pro-hematopoiesis in vitro Enhancement” value is given as “− (“−” represents less than 10% effect)”.
On to “29. 128-145: β-hCG amino acids 128-145 (LPSPSRLPGPSDTPILPQ; UniProt P0DN86 148-165, looked up, fragment)”, for which, in the assay with HIV-1, the “HIV in vitro Inhibition” value was “− (“−” represents less than 10% effect)”. Besides, the KS in vitro entry in the assay with KS Y-1 and KS-SLK cells is given as “− (“−” represents less than 10% effect)”. In assay [2], the “Pro-hematopoiesis in vitro Enhancement” value is on record as “−V (“−” represents less than 10% effect)”.
For “31. 51-59: β-hCG amino acids 51-59 (ALPQVVCNY; UniProt P0DN86 71-79, looked up, fragment)”, the “HIV in vitro Inhibition” value in the assay on HIV-1 is recorded as “− (“−” represents less than 10% effect)”. In the assay with KS Y-1 and KS-SLK cells, the KS in vitro result is recorded as “− (“−” represents less than 10% effect)”. Besides, in assay [2], the “Pro-hematopoiesis in vitro Enhancement” value is “− (“−” represents less than 10% effect)”.
Take “35. 1-15: α-hCG amino acids 1-15 (APDVQDCPECTLQEN; UniProt P01215 25-39, looked up, fragment)”: the KS in vitro entry in the assay on KS Y-1 and KS-SLK cells is recorded as “− (“−” represents less than 10% effect)”. For the same substance, in assay [1], the KS in vivo result was “− (“−” represents less than 10% effect)”. In addition, the “Pro-hematopoiesis in vitro Enhancement” value in assay [2] was “− (“−” represents less than 10% effect)”.
In the case of “36. 16-30: α-hCG amino acids 16-30 (PFFSQPGAPILQCMG; UniProt P01215 40-54, looked up, fragment)”, the “HIV in vitro Inhibition” value in the assay with HIV-1 was “− (“−” represents less than 10% effect)”. Besides, the KS in vitro entry with KS Y-1 and KS-SLK cells is given as “− (“−” represents less than 10% effect)”. The “Pro-hematopoiesis in vitro Enhancement” value in assay [2] is recorded as “− (“−” represents less than 10% effect)”.
Consider “37. 26-45: α-hCG amino acids 26-45 (LQCMGCCFSRAYPTPLRSKK; UniProt P01215 50-69, looked up, fragment)”, for which the “HIV in vitro Inhibition” value in the assay on HIV-1 is recorded as “− (“−” represents less than 10% effect)”. Further, the KS in vitro result in the assay with KS Y-1 and KS-SLK cells is listed as “− (“−” represents less than 10% effect)”. Also, the “Pro-hematopoiesis in vitro Enhancement” value in assay [2] is “− (“−” represents less than 10% effect)”.
“40. 72-92: α-hCG amino acids 72-92 (GGFKVENHTACHCSTCYYHKS; UniProt P01215 96-116, looked up, fragment)”: in the assay with HIV-1, the “HIV in vitro Inhibition” value is “− (“−” represents less than 10% effect)”. Also, the KS in vitro result in the assay on KS Y-1 and KS-SLK cells is recorded as “− (“−” represents less than 10% effect)”. Further, the “Pro-hematopoiesis in vitro Enhancement” value in assay [2] is recorded as “− (“−” represents less than 10% effect)”.
